Patent publication US8193333B2, “Cancer therapy using Bcl-Xl-specific siNA” (Centre Regional de Lutte Contre le Cancer-Centre Francois …, priority 2006, dated 2012)

System: SKOV3 cells
Assay: Apoptosis induction in SKOV3 cells (cell and nuclear morphology after DAPI, caspase 3 activation and PARP cleavage by Western blot)
Format: cell-based, human
Experimental: Exponentially growing cells were exposed to CDDP for 2 hours at 37° C., in serum free medium. After exposure to the drug, the cell layers were rinsed and incubated in complete growth medium.
The siRNA duplexes were transfected according to the recommended procedure by using the Oligofectamine Reagent and Opti-MEM medium (INVITROGEN LIFE TECHNOLOGIES). 30-40% confluent cells were transfected in 25 cm^2 flasks with different concentrations of siXL1, siRNA Mcl-1 or siRNA control and incubated at 37° C., 5% CO2 for 4 hours. Next, 20% fetal bovin serum was added to reach a final concentration of 10% foetal bovin serum in the 25 cm^2 flask.
Cells were rinsed with ice cold PBS and lysed in 150 mM NaCl, 50 mM Tris-HCl pH 8, 1% Triton X100, 4 mM PMSF, 2 mM Aprotinin, 5 mM EDTA, 10 mM NaF, 10 mM NaPPi, 1 mM Na3VO4 for 30 min on ice. Lysates were clarified by centrifugation at 10000 g for 10 min at 4° C. and protein concentrations were determined using the Bradford assay (BIO-RAD). Equal amounts of total cellular protein (20 μg) were resolved in a Bis-tris-HCL buffered (pH 6.4) 4-12% polyacrylamide gel (NuPAGE® Novex® 4-12% Bis-tris gel, INVITROGEN) for 35 min at 200V and electrophoretically transferred on a PVDF membrane (MILLIPORE) for 75 min at 30V. The membrane was blocked for 1 hour at room temperature in T-TBS (132 mM NaCl, 20 mM Tris-HCl pH 7.6, 0.05% Tween 20) supplemented with 5% non-fat dry milk. The membrane was incubated for 1 hour at room temperature in T-TBS-milk with the following primary antibodies: anti-Bcl-XL/S (1:500, S18 SANTA-CRUZ BIOTECHNOLOGY), anti-PARP (1:1000, CELL-SIGNALING TECHNOLOGY), anti-caspase-3 (1:1000, BD BIOSCIENCES PHARMINGEN) anti-cleaved caspase-3 (1:1000, CELL-SIGNALING TECHNOLOGY), anti-alpha-tubulin (1:3000, SIGMA) and anti-Mcl-1 (1:750, S19 SANTA-CRUZ BIOTECHNOLOGY). After three washes with T-TBS, the membrane was incubated for 1 h at room temperature in T-TBS-milk with the adequate peroxidase conjugated secondary antibody (Anti-rabbit IgG, CELL-SIGNALING TECHNOLOGY, and anti-mouse IgG, AMERSHAM). After 3 washes with T-TBS and one with TBS, the immunoreactivity was detected by enhanced chemiluminescence (ECL kit, AMERSHAM).
After treatment, detached cells were collected separately and adherent cells were dissociated by trypsin/EDTA. Adherent and detached cells were then pooled and centrifuged at 1500×g for 5 min before being fixed in 70% ethanol. The cells were then collected on a polylysine-coated glass slide by cytocentrifugation, before a 30 min room temperature incubation in a 1 μg/ml DAPI aqueous solution (BOEHRINGER MANNHEIM). Slides were thereafter extensively washed in distilled water and mounted in Mowiol (CALBIO-CHEM).

Substance: siXL1: double-stranded siRNA blocking Bcl-XL expression; sense 5′-auuggugagucggaucgcatt-3′ (SEQ ID NO: 5), anti-sense 5′-ugcgauccgacucaccaautt-3′ (SEQ ID NO: 6) (sense AUUGGUGAGUCGGAUCGCATT; antisense UGCGAUCCGACUCACCAAUTT; chemistry not given here)
- caspase 3 activation and PARP cleavage after 24 h exposure to cisplatin (24 h, combination with 20 μg/ml cisplatin): detectable
- apoptosis induction (cellular and nuclear morphology, caspase 3 cleavage) (72 h after transfection, FIG. 5): moderate apoptosis
- apoptosis / cell death (nuclear fragmentation and condensation, morphology, pre-G1 peak) (alone 150 nM or in combination 75 nM each, FIGS. 13 and 14): moderate apoptosis
